According to a melting point compilation (Tetko et al.; mined from patent text by program, amines drawn as free bases though some values may be those of a salt):

First: CCc1nn(CCCO)c(CC)c1Cc1cc(Cl)cc(Cl)c1
Second: C=CCn1c(C)c(C)c2cnnc(SCc3ccc(Cl)cc3)c21
The melting point of the first is lower: 56 to 59 °C for the first, 107 to 108 °C for the second.

Compared with `CCOC(=O)c1ccccc1NC(=O)NCC1(c2ccccc2)CCCCC1`, `CC(c1ccccc1)N1CC2Cc3cc4ccccc4n3CC2C1` (stereo not drawn) is higher in melting point: 99 to 101 °C for the first, 153 °C for the second.

First: CCCN(Cc1ccc(C(=O)NC2Cc3ccccc3C2)cc1)C1CCc2ncsc2C1 (stereo not drawn)
Second: COc1ccc(CCN2CCC(n3ccc4ccc(CNC(C)=O)cc43)CC2)cc1
The melting point of the first is lower: 65 °C for the first, 101 to 102 °C for the second.

Compared with `CC(=O)OC1N=C(c2ccccc2F)c2cc(Cl)ccc2-n2c1cnc2C` (stereo not drawn), `Cc1cc(Cl)ncc1C(=O)Nc1ccc2c(c1)-c1c(c(C(N)=O)nn1-c1ccc(F)cc1)CC2` is higher in melting point: 201 to 202 °C for the first, 280 to 284 °C for the second.

First: CCCc1nc2c(N)nc3cc(OCCCNC(=O)C(C)C)ccc3c2n1CC(C)C
Second: CCOCc1nc2c(N)nc3ccccc3c2n1CC(C)(C)CS(=O)(=O)NC
The melting point of the first is higher: 179 to 181 °C for the first, 161 to 163 °C for the second.

First: Cc1oc(-c2ccc(C(F)(F)F)cc2)nc1-c1ccc(-c2cc(Br)c(O)c(Br)c2)cc1
Second: Cc1cc(-c2ccc(S(N)(=O)=O)cc2)n(-c2ccc(C)c(C)c2)c1
The melting point of the first is lower: 79 to 81 °C for the first, 118 to 120 °C for the second.

Compared with `Cc1c(C)c2c(c(C)c1O)CCC(C)(C#N)O2` (stereo not drawn), `Cc1nc(-c2ccccc2)c(C)c(=O)o1` is lower in melting point: 149 to 151 °C for the first, 68 °C for the second.

First: CCSC(C)(C)C(=O)CC(=O)Nc1cc(NC(=O)CCCOc2ccc(C(C)(C)CC)cc2C(C)(C)CC)ccc1Cl
Second: COCOc1cc(CCC(=O)c2c(OC)cc(OC)c(CCC(C)C)c2O)ccc1OC
The melting point of the first is higher: 121 to 122 °C for the first, 93.5 to 94.5 °C for the second.

Compared with `COCOC(C(Cc1ccccc1)NC(=O)[C@@H](NC(=O)OCc1ccccc1)C(C)C)C(Cc1ccccc1)NC(=O)[C@@H](NC(=O)OCc1ccccc1)C(C)C` (stereo partly drawn), `Cn1c(COc2ccc(CC3SC(=O)N(C(c4ccccc4)(c4ccccc4)c4ccccc4)C3=O)cc2)nc2ccc(OCc3ccccc3)nc21` (stereo not drawn) is lower in melting point: 197 to 198 °C for the first, 88 to 92 °C for the second.

Compared with `Cc1nc(Sc2ncccc2C(=O)O)sc1CC(=O)O`, `Cc1oc(-c2ccccc2)nc1COc1cc(COc2nn(C)cc2CC(=O)O)ccn1` is lower in melting point: 233 to 235 °C for the first, 126 to 127 °C for the second.

First: Cc1c(C=CC#N)cccc1[N+](=O)[O-]
Second: Cc1c(-n2ccnc2)[nH]c2ccccc12
The melting point of the first is lower: 136 °C for the first, 156 to 158 °C for the second.

Compared with `CCCCCCCCCCCCCCCCCCN(C(=O)OC(C)(C)C)c1ccc(CCC(=O)O)cc1`, `CCOC(=O)CCCCC(c1ccc(C)s1)N(O)C(N)=O` (stereo not drawn) is higher in melting point: 46 to 48 °C for the first, 106 to 107 °C for the second.

First: CC(C)(C)OC(=O)NCCCCC1C(=O)OC(C)(C)OC1=O
Second: COC(=O)C1C(C)CC2C3CCC4CC(O)CCC4(C)C3C(=O)CC21C (stereo not drawn)
The melting point of the first is lower: 112 to 113 °C for the first, 173 to 174 °C for the second.

First: CCN1C(=O)c2cnc(-c3ccccc3)nc2N(C(=O)CN(C(C)C)C(C)C)c2ccccc21
Second: COc1cc(-c2ccccc2)nc(SCC(=O)O)n1
The melting point of the first is lower: 120 to 121 °C for the first, 157 to 159 °C for the second.

First: N#CC1=C(C2CCCCCC2)Nc2n[nH]cc2C1c1cccc2nonc12 (stereo not drawn)
Second: N#Cc1c(-c2oc3ccccc3c2Cl)[nH]c(Cl)c1Cl
The melting point of the first is lower: 228 °C for the first, 258 to 260 °C for the second.

First: CC(C)NC(=O)c1nn(-c2ccc(Cl)cc2)c(=O)c2c(N)scc12
Second: CCN(CC)C(=O)n1ccc(S(=O)c2ccccc2Cl)n1 (stereo not drawn)
The melting point of the first is higher: 197 to 199 °C for the first, 54 to 56 °C for the second.

First: N#Cc1ccc(C(F)(F)C23CCCN2C(=O)N(c2cc(Cl)cc(Cl)c2)C3=O)cc1 (stereo not drawn)
Second: CC1(C)CC(=O)C2=C(C1)NC1=C(C(=O)CC(C)(C)C1)C2c1ccc(Cl)c(OCc2ccccc2)c1
The melting point of the first is lower: 66 °C for the first, 243 to 244 °C for the second.

Compared with `C#CCNc1nc2cc3ccccc3cc2nc1Cl`, `Clc1nc(-c2cccnc2)sc1Br` is lower in melting point: 169 to 172 °C for the first, 114 to 115 °C for the second.

First: Cc1nc2cc(NC(=O)c3cc4cc(F)ncc4n3Cc3cccc(F)c3)ccc2s1
Second: O=C/C=C/C=C/c1ccc(OCC(F)(F)C(F)F)cc1
The melting point of the first is higher: 193 to 195 °C for the first, 53 to 55 °C for the second.
